Key:
Assay type in all cases: cell-based
[1] = tested on: NCI-H838; experiment: Cell proliferation assay (CellTiter-Glo); conditions: Homo sapiens, NCI-H838 cells, 72 h
Procedure: (§1) All cells were obtained from the cell bank of the American Type Culture Collection (ATCC) and cultured in the supplier's recommended media supplemented with 10% FBS. The cell panel screen was measured using the CellTiter-Glo assay (Promega, Madison, WI) following a standard protocol. Briefly, cancer cells were seeded in 96-well plates and cultured overnight at 37°C with or without 5% CO2 in an incubator. Each compound was dissolved with limited DMSO and diluted to a certain concentration with culture medium and then added to the corresponding well of the cell plate. The final concentration of compound was 20 μM. The control cells (without treatment) received the same amount of DMSO and were incubated under the same conditions. After 72 h cultivation, 100 μL of the CellTiter-Glo reagent was added directly to each well for 10-minute incubation. The plate was then read on a FlexStation 3 microplate luminometer (Molecular Devices, USA) to monitor the luminescence signal generated by the luciferase-catalyzed reaction of luciferin and ATP. The percent of growth inhibition was calculated using the following formula: (untreated cells − treated cells)/(untreated cells − background without cells) ∗ 100.
(§2) For proliferation assays, the CellTiter-Glo assay (Promega, Madison, WI) was used to evaluate the proliferation of cancer cells treated with test compounds as described above. Each compound was dissolved in limited DMSO and diluted to various concentrations with culture medium and then added to the corresponding wells. A dose-response curve was plotted, and the IC50 was calculated using XLfit software.

[2] = tested on: NCI-H1993; experiment: Cell proliferation assay (CellTiter-Glo); conditions: Homo sapiens, NCI-H1993 cells, 72 h
Procedure: as §1, §2

[3] = tested on: NCI-H1975; experiment: Cell proliferation assay (CellTiter-Glo); conditions: Homo sapiens, NCI-H1975 cells, 72 h
Procedure: as §1, §2

[4] = tested on: SW48; experiment: Cell proliferation assay (CellTiter-Glo); conditions: Homo sapiens, SW48 cells, 72 h
Procedure: as §1, §2

[5] = tested on: SW954; experiment: Cell proliferation assay (CellTiter-Glo); conditions: Homo sapiens, SW 954, SW954 cells, 72 h
Procedure: as §1, §2

[6] = tested on: LnCap; experiment: Cell proliferation assay (CellTiter-Glo); conditions: Homo sapiens, LnCap cells, 72 h
Procedure: as §1, §2

[7] = tested on: SW1353; experiment: Cell proliferation assay (CellTiter-Glo); conditions: Homo sapiens, SW1353 cells, 72 h
Procedure: as §1, §2

[8] = tested on: A549; experiment: Cell proliferation assay (CellTiter-Glo); conditions: Homo sapiens, A549 cells, 72 h
Procedure: as §1, §2

[9] = tested on: SK-MEL-28; experiment: Cell proliferation assay (CellTiter-Glo); conditions: Homo sapiens, SK-MEL-28 cells, 72 h
Procedure: as §1, §2

[10] = tested on: NCI-H1573; experiment: Cell proliferation assay (CellTiter-Glo); conditions: Homo sapiens, NCI-H1573 cells, 72 h
Procedure: as §1, §2

[11] = tested on: CHP212; experiment: Cell proliferation assay (CellTiter-Glo); conditions: Homo sapiens, CHP-212, CHP212 cells, 72 h
Procedure: as §1, §2

[12] = tested on: U118MG; experiment: Cell proliferation assay (CellTiter-Glo); conditions: Homo sapiens, U-118-MG, U118MG cells, 72 h
Procedure: as §1, §2

[13] = tested on: NCI-H1650 cells; experiment: Soft-agar colony formation assay; conditions: Homo sapiens, 168 h; NCI-H1650 cells in soft agar, one week, Alamar Blue; read-out: IC50, cell colony formation
Procedure: NCI-H1650 cells were plated in soft agar (Takara, Japan) at a density of 4000 cells/well in a 96-well plate. For the base layer, 1.2% agar stock solution was melted in an autoclave, cooled to 40°C in a water bath, and then mixed with RPMI1640 medium to obtain a solution of 0.6% agar in RPMI1640 containing 10% FBS. A cell suspension placed on the top layer was composed of RPMI1640 with 10% FBS and 0.4% agarose in each well. Then, the cells were incubated overnight. Compounds were added into the wells, and the NCI-H1650 cells were incubated for one week. After 7 days, alamar blue was added to the agar plate wells containing NCI-H1650 cell, and the plates were returned to the incubator. The fluorescence intensity (excitation 560 nm, emission 590 nm) was measured after 24 h.

| SMILES | IC50 [1] | IC50 [2] | IC50 [3] | IC50 [4] | IC50 [5] | IC50 [6] | IC50 [7] | IC50 [8] | IC50 [9] | IC50 [10] | IC50 [11] | IC50 [12] | IC50 [13] |
| --- | --- | --- | --- | --- | --- | --- | --- | --- | --- | --- | --- | --- | --- |
| CC(C)=CCC/C(C)=C/Cc1c(O)c(CC=C(C)C)c2c(c1O)C(=O)C1=C[C@@H]3C[C@H]4C(C)(C)O[C@@](CC=C(C)C)(C3=O)[C@@]14O2 [GB32] | 3.15 ± 0.04 µM | 2.47 ± 0.11 µM | 1.58 ± 0.12 µM | 3.84 ± 0.09 µM | 2.43 ± 0.17 µM | 1.8 ± 0.14 µM | 1.41 ± 0.05 µM | 2.88 ± 0.06 µM | 1.51 ± 0.07 µM | 4.36 ± 0.15 µM | 1.45 ± 0.08 µM | 1.19 ± 0.07 µM | 3.13 ± 0.3 µM |
| CC(C)=CCC[C@@]1(C)C=Cc2c(O)c3c(c(CCC(C)(C)O)c2O1)O[C@]12C(=C[C@@H]4C[C@H]1C(C)(C)O[C@@]2(C/C=C(/C)C(=O)O)C4=O)C3=O [GB39, 33-hydroxyepigambogic acid] | 1.5 ± 0.07 µM | 1.03 ± 0.13 µM | 1.25 ± 0.14 µM | 1.44 ± 0.06 µM | 0.94 ± 0.04 µM | 0.84 ± 0.08 µM | 0.76 ± 0.03 µM | 3.04 ± 0.1 µM | 0.82 ± 0.11 µM | 6.08 ± 0.21 µM | 1.2 ± 0.08 µM | 1.15 ± 0.09 µM | 1.26 ± 0.01 µM |
| CC(C)=CCC/C(C)=C/Cc1c(O)c(CC=C(C)C)c2c(c1O)C(=O)C1=C[C@@H]3C[C@H]4C(C)(C)O[C@@](C/C=C(\C)C=O)(C3=O)[C@@]14O2 [GB49] | 2.72 ± 0.15 µM | 2.55 ± 0.14 µM | 1.69 ± 0.15 µM | 2.97 ± 0.06 µM | 1.88 ± 0.1 µM | 1.91 ± 0.06 µM | 1.29 ± 0.05 µM | 3.46 ± 0.2 µM | 1.51 ± 0.12 µM | 7.89 ± 0.14 µM | 1.43 ± 0.03 µM | 1.22 ± 0.05 µM | 3.92 ± 0.13 µM |
| CC(C)=CCC/C(C)=C/Cc1c(O)c(CC=C(C)C)c2c(c1O)C(=O)C1=C[C@@H]3C[C@H]4C(C)(C)O[C@@](C/C=C(\C)C(=O)O)(C3=O)[C@@]14O2 [GB63] | 2.65 ± 0.2 µM | 2.15 ± 0.1 µM | 1.71 ± 0.22 µM | 4.02 ± 0.15 µM | 2.58 ± 0.16 µM | 2.17 ± 0.21 µM | 2.48 ± 0.11 µM | 3.77 ± 0.06 µM | 1.75 ± 0.16 µM | 7.92 ± 0.29 µM | 3.51 ± 0.08 µM | 3.05 ± 0.1 µM | 2.66 ± 0.15 µM |
| CC(C)=CCC[C@@]1(C)C=Cc2c(O)c3c(c(C/C=C(\C)CO)c2O1)O[C@]12C(=C[C@@H]4C[C@H]1C(C)(C)O[C@@]2(C/C=C(/C)C(=O)O)C4=O)C3=O [GB40, 35-hydroxyepigambogic acid] | 1.68 ± 0.19 µM | 1.29 ± 0.05 µM | 0.96 ± 0.05 µM | 1.47 ± 0.1 µM | 1.02 ± 0.1 µM | 0.79 ± 0.12 µM | 0.83 ± 0.05 µM | 2.45 ± 0.06 µM | 0.73 ± 0.21 µM | 5.99 ± 0.19 µM | 1.18 ± 0.05 µM | 1.03 ± 0.15 µM | 1.07 ± 0.04 µM |

— article PMC4450297, “Screening Active Compounds from Garcinia Species Native to China Reveals Novel Compounds Targeting the STAT/JAK Signaling Pathway” (BioMed Research International, 2015)
